According to patent US20030203850A1, “Transdifferentiation of pancreatic acinar cells” (McGill University, priority 2002, published 2003):
Ends that are not written are not given here.

Test system: β-cell mass
Assay: INGAP peptide administration to hamsters: extra-islet acinar-associated and total β-cell mass
Format: in vivo
Settings: 250 μg twice daily intra-peritoneal, female Syrian hamsters
Method: Female Syrian hamsters, 8 weeks of age, were randomly allocated to receive daily intra-peritoneal injections of INGAP peptide (Ile-Gly-Leu-His-Asp-Pro-Ser-His-Gly-Thr-Leu-Pro-Asn-Gly-Ser) (250 μg twice daily) or an equivalent volume of saline for either 10 (saline n=10, INGAP n=15) or 30 (S n=10, I n=15) days. At the end of the study period, animals were sacrificed by bleeding, and the pancreata excised through a midline laparotomy incision, for morphologic and morphometric analysis.
Samples were embedded in paraffin wax and 4 μm-thick sections were cut. The sections were processed for routine histology and immunostained for insulin, CK19 (1:750, 1:100 respective antibody dilution, Dako Corp., Santa Barbara, Calif.), glucagon, somatostatin and pancreatic polypeptide (1:750 antibody dilution, Biogenex, San Ramon, Calif., USA), using the AB complex method (streptavidin-biotin horseradish peroxidase complex, Dako Corp., Santa Barbara, Calif.), as described previously (22). A rabbit PDX-1 antibody directed against the NH2-terminus of the frog homologue of the protein encoded by the pdx-1 gene was used as the primary antibody (1:750 dilution; a gift from C. Wright, Vanderbilt University). Slides were countered stained with Harris hematoxylin (Sigma, St. Louis, Mo.).
Comparison between groups was done using 1-way ANOVA, 2-way ANOVA with post hoc one-tail t-test or X^2 analysis where appropriate. Data are presented as mean±SEM. Significance was accepted at the 5% level.
To determine β-cell mass (mg/pancreas), each gland was sectioned along its longitudinal axis to avoid any sampling bias due to regional variation in islet distribution and cell composition. Islet cross-sectional areas were traced manually with the aid of an Olympus BX60 microscope connected by video camera to a computer equipped with Image-pro Plus software version 4.0 (23). The total β-cell mass was calculated by a stereological equation, as described previously (22).
β-cell neogenesis and acinar-associated β-cell mass was analysed as described previously […]. Briefly, extra-islet acinar-associated β-cells/cell clusters were defined as insulin positive cells/cell clusters not associated with any other endocrine cells (α, δ, PP), completely surrounded by acinar tissue and a minimum of 100 μm from ductular tissue. The percent β-cell area being extra-islet acinar-associated was determined and multiplied by the weight of the excised organ to determine extra-islet acinar-associated β-cell mass.

IGLHDPSHGTLPNGS [INGAP peptide]
increase in extra-islet acinar-associated β-cell mass versus saline infused controls (10 days of treatment): 180% | increase in total β-cell mass (10 days of treatment): 44% | increase in total β-cell mass (30 days of treatment): 31% | increase in extra-islet acinar-associated β-cell mass versus saline infused controls (30 days of treatment, p<0.05): 200%
